Data published in patent US10548933B2, “Method for preparing broccoli protein peptide mixture” (ZHEJIANG HISUN PHARMACEUTICAL CO., LTD., priority 2015, dated 2020).

Experiment: DPPH free radical scavenging rate method (antioxidant capacity)
Assay type: biochemical
Conditions: 30 min, dark, 517 nm, average of three
Procedure: The antioxidant capacity was determined with the neutral protease and trypsin-digested peptide prepared in example 2, as well as the alkaline protease-digested peptide, the trypsin-digested peptide, the neutral protease-digested peptide, the papain-digested peptide and the pepsin-digested peptide prepared in example 3 used as samples, with soybean protein peptide and reduced glutathione used as controls (DPPH free radical scavenging rate method).
(1) DPPH (1,1-diphenyl-2-picrylhydrazyl) (25 mg) was weighed accurately, dissolved in absolute ethanol and the volume reached to 250 mL in a brown volumetric flask, DPPH solution with the concentration of 0.1 mg/mL was obtained and was kept in dark place to be supplied as standby.
(2) 1.0 mL sample solutions with different concentrations (100 mg/mL, 10 mg/mL, 1 mg/mL, 0.1 mg/mL) were taken, the solutions were placed in a 10 mL colorimetric tube respectively, 4.0 ml DPPH solution was added, the mixture was reacted at room temperature in a dark place for 30 minutes.
(3) The absorbance value was measured at 517 nm with the absolute ethanol as blank. The DPPH free radical scavenging rate was calculated according to the following formula. DPPH free radical scavenging rate (%)=[…] • In the formula. A0—the absorbance value of 1.0 mL distilled water+3.0 mL solution • As—the absorbance value of 1.0 mL sample solution+3.0 mL DPPH solution • Ac—the absorbance value of 1.0 mL sample solution+3.0 mL absolute ethanol.
The experiment was repeated for three times, the average value of the scavenging rate was obtained (if the solution was turbid, the measurement was taken after centrifugation).

Question: Which results are given for `N[C@@H](CCC(=O)N[C@@H](CS)C(=O)NCC(=O)O)C(=O)O` [Reduced glutathione (GSH), Reduced glutathione]?
Answer: DPPH free radical scavenging rate (sample concentration 0.1 mg/ml): 30.8%; DPPH free radical scavenging rate (sample concentration 1 mg/ml): 72.1%; DPPH free radical scavenging rate (sample concentration 10 mg/ml): 90.9%; DPPH free radical scavenging rate (sample concentration 100 mg/ml): 95.9%
